The source of these data is patent US8361968B2 (Takeda Pharmaceutical Company Limited, priority 2002, dated 2013).

One series can be described thus: in vitro. The conditions noted are these: female, Balb/c, mouse, serum.
Another series has as its system immature rat. Briefly: Induction of ovulation in immature rat using metastin derivatives. In kind it is in vivo, rats. The conditions noted are these: for number of oocytes in average per rat / dose to be administered for induction of ovulation equivalent to hCG: eCG-primed immature female rats; for dose to be administered for induction of ovulation equivalent to hCG: s.c. The procedure:
Equine chorionic gonadotropin (eCG, serotropin, Dainippon Pharmaceutical Co., Ltd.) was dissolved in saline (Otsuka Pharmaceutical Co., Ltd.) in a concentration of 100 IU/mL. Using a 1 mL tuberculin syringe with a 26-gauge needle (both by Terumo Co., Ltd.), eCG was subcutaneously injected into the dorsal area of female Wistar rats of 23 days old after birth (Charles River Japan, Inc.) in a dose of 10 IU/animal, during 9:00 to 10:00 AM. As shown below, the animal was grouped 47 to 48 hours after the eCG injection and the drugs were given to these groups, respectively.
Group B (5 rats): Compound No. 305 was dissolved in saline at 33.3 nmol/mL and the solution was subcutaneously injected into the back in a dose of 6.7 nmol/animal.
Group C (5 rats): Compound No. 305 was dissolved in saline at 10.0 nmol/mL and the solution was subcutaneously injected into the back in a dose of 2.0 nmol/animal.
Group D (5 rats): Compound No. 322 was dissolved in saline at 33.3 nmol/mL and the solution was subcutaneously injected into the back in a dose of 6.7 nmol/animal.
Group E (5 rats): Compound No. 322 was dissolved in saline at 10.0 nmol/mL and the solution was subcutaneously injected into the back in a dose of 2.0 nmol/animal.
Group F (6 rats): Saline was subcutaneously injected into the back in a dose of 200 μL/animal.
After administration of these drugs, the animal was sacrificed by decapitation after 24 to 25 hours to recover blood, bilateral oviducts and uterus. In collecting the blood, 90 μL of 10 KIU/mL aprotinin solution (Trasylol, Bayer) containing 3 mg/ml EDTA had been previously filled in a tube for recovery to prevent blood clotting. After blood recovery, the blood was thoroughly blended and the mixture was centrifuged at 2,000 G for 25 minutes. The supernatant was recovered and used as a plasma sample.
The number of oocytes was counted by referring to the method described in Eur. J. Endocrinol., 138, 594-600 (1998). That is, where retained oocytes in the oviducal ampulla were confirmed by stereomicroscopic observation of the oviduct, the ampulla was punctured with a 27-gauge syringe needle (Terumo) to retrieve the oocytes. After granulosa cells surrounding the oocytes were removed by trypsin treatment, the number of oocytes was counted. Where the retained oocytes in the oviducal ampulla were not confirmed by stereomicroscopic observation of the oviduct, a 27-gauge syringe needle with the polished tip was inserted into the tubal ostium and more than 400 μL of saline was flushed into the oviduct and uterine for rinsing. Then, the presence or absence of oocytes in the effluent was observed.

Series [1] deals with human colonic carcinoma-derived cell line SW620. Briefly: Tumor growth inhibition activity in tumor-bearing mice with SW620. Type of series: in vivo. The settings on record: for tumor growth inhibition (tumor size) compared to the vehicle group: SW620 tumor-bearing BALB/cAnN-nu mice, s.c. osmotic pump. The procedure: The abscissa denotes the number of days after injection. The bar on the abscissa designates a dosing period. The ordinate denotes a tumor size (mm^3).
Evaluation of Tumor Growth Inhibition Activity
On the following day, human colonic carcinoma-derived cell line SW620 (ATCC) was dissolved in 20 mM phosphate buffered saline (pH 7.2)(PBS) containing 200 μL of 0.15M NaCl at a density of 2×10^6 cells. The resulting solution was subcutaneously injected into the left flank of the mice above. The day when the cells were injected was made Day 0. Tumor was measured with an electronic caliper every other or 2 other days during Days 4 to 13 from the cell administration, and tumor size was calculated by the following equation: […].

Series [2] has as its system hOT7T175-expressed CHO cells. In kind it is cell-based. The method, then:
Assay for Cell Growth Inhibition Activity in hOT7T175-Expressed Cho Cells hOT7T175-Expressed CHO cells (hereinafter hOT7T175) were cultured in DMEM supplemented with 10% dialyzed FBS (hereinafter 10% dFBS/DMEM), which was used for the following assay. The hOT7T175 was suspended in 10% dFBS/DMEM at 10,000 cells/ml. The cells were plated on a 96 well plate at 100 μL each/well (1,000 cells/well), followed by culturing overnight at 37° C. in a 5% CO2 incubator. On the following day, the medium was removed and 90 μL of 10% dFBS/DMEM supplemented with 0.5% BSA (hereinafter, 0.5% BSA/10% dFBS/DMEM) was added. […] After 10 μL of Cell Counting Kit-8 solution (Dojin Chemical Laboratory) was added to each well, incubation was performed at 37° C. in a 5% CO2 incubator for 4 hours and absorbance was measured at 450 nm.

In the next series the test system is rats. As to the kind of experiment: Effect of metastin derivatives on blood glucose level and blood glucagon level. Type of series: in vivo. The settings on record: for blood glucose level: i.v. 80 nmol/kg (FIG. 10); for blood glucagon level: i.v. 80 nmol/kg (FIG. 11). The source says: The value indicates (mean±SE) (n=5). The symbol * designates that the P-value is 0.05 or less, when compared to the saline group and the symbol ** designates that the P-value is 0.01 or less, when compared to the saline group.
In the figure, the symbols, open circle, closed circle and closed triangledesignate the blood glucagon level in the saline group and the group receiving 80 nmol/kg KiSS1-305 (Compound No. 305), the group receiving 80 nmol/kg KiSS1-322 (Compound No. 322), respectively. The value indicates (mean±SE) (n=5). The symbol * designates that the P-value is 0.05 or less, when compared to the saline group.
An operation was performed in free moving mature Wistar male rats (weighing […] at the time of operation) in a manner similar to TEST EXAMPLE 1 to collect blood. After the operation, the animal was maintained overnight. […] To prevent blood clotting, 3 μl of 300 KIU/ml aprotinin solution containing 3 mg/ml EDTA had previously been filled in the syringe. […] Blood was collected from the jugular vein by 300 μl each 2, 5, 15, 30, 45 and 60 minutes starting from the intravenous injection. The collected blood was centrifuged (13,000 rpm, 5 minutes) with a high speed refrigerated centrifuge (MR-150, Tomy Seiko Co., Ltd.) to recover the supernatant (plasma). Glucose level in blood was measured using Fuji Drychem 3500 (FUJI FILM) and glucagon level in blood was measured using a glucagon kit “Daiichi” (Daiichi Radioisotope Laboratories Ltd.), as in TEST EXAMPLE 1 or 2.

Read-outs that look alike come from different tables or passages of the source. Square brackets hold non-standard residues; d marks the D form. Peptide text beside a SMILES is read from it. * marks the point of attachment. Propanoyl(3-(3-pyridyl)) = O=C(CCc1cccnc1)*; Arg(Me) = CNC(=N)NCCC[C@H](N)C(=O)O; d4Pal = N[C@H](Cc1ccncc1)C(=O)O; azaGly = NNC(=O)O

Protocol for in vitro: Blood was drawn from Balb/c mice (female) of 8 weeks old, settled at 37° C. for 30 minutes and centrifuged at 13000 rpm for 10 minutes to give the serum as the supernatant. The serum thus obtained was frozen-stored at −80° C.
The stability test was performed by addition of 5 nmol of Compound (5 μL of aqueous solution) to 45 μL of serum and then settlement of the mixture at 37° C. The settlement was made at 3 points of time, including 2, 10 and 30 minutes. The sample after the settlement was boiled for 3 minutes and cooled on an ice bath. After 200 μL of acetonitrile/water (3/1) was added to the sample, the mixture was ultrasonicated for 5 minutes and then centrifuged at 5000 rpm for 1 minute. After 150 μL of the supernatant was diluted with 250 μL of distilled water, insoluble matters were removed by filtration through a filter having a pore size of 0.45 μm and 200 μL of the filtrate was applied on HPLC (220 nm) to determine the peak area of Compound. A ratio of the peak area to the area when Compound was treated for 0 minute under the same conditions was calculated as a mean value in 4 respective runs to determine the residual ratio. Next, by taking the calculated residual ratio on the ordinate and the time on the abscissa, a graph was prepared and approximated by an exponential function.
The preparative HPLC used was the LC-VP series manufactured by Shimadzu Corporation and Wakosil-II 5C18 HG (4.6 mm×100 mm) manufactured by Wako Pure Chemical Industries, Ltd. was used as the column. Eluant A (0.1% TFA-containing water) and eluant B (0.1% TFA-containing acetonitrile) were used as eluants. Analysis was performed by linear density gradient elution (25 minutes) at a flow rate of 1.0 ml/min. using eluants A/B: 100/0-0/50.

The half-life is the time needed for the level to fall by half in the phase considered. High values mean slow loss, low ones fast loss. Usually IC50 stands for the concentration that gives 50% inhibition. In “in vitro”, `CNC(=N)NCCC[C@H](NC(=O)[C@H](CC(C)C)NC(=O)NNC(=O)[C@H](Cc1ccccc1)NC(=O)[C@H](CO)NC(=O)[C@H](CC(N)=O)NC(=O)[C@@H](Cc1ccncc1)NC(=O)[C@H](N)Cc1ccc(O)cc1)C(=O)N[C@@H](Cc1ccccc1)C(N)=O` [Compound No. 305, D-Tyr-D-Pya(4)-Asn-Ser-Phe-AzaGly-Leu-Arg(Me)-Phe-NH2] (H-[dY][d4Pal]NSF[azaGly]L[Arg(Me)]F-NH2) showed a half-life at 100 µM of 1.11 h. Moreover, the “level of estradiol contained in plasma” value in the series on immature rat (2.0 nmol/animal s.c. (FIG. 21)) and with immature rat (6.7 nmol/animal s.c. (FIG. 21)) was “no difference” throughout. Further, the “level of progesterone in blood” value with immature rat (2.0 nmol/animal s.c. (FIG. 22)) and in the series with immature rat (6.7 nmol/animal s.c. (FIG. 22)) was “less than a half of the level in Group A” throughout. The “number of oocytes in average per rat” value in the series with immature rat (2.0 nmol/animal s.c.) is on record as 29.4 oocytes; with immature rat (6.7 nmol/animal s.c.) it was 32.6 oocytes. Moreover, the “dose to be administered for induction of ovulation equivalent to hCG” value in the series on immature rat is listed as “at least 2.0 nmol/animal”. Besides, the “tumor growth inhibition (tumor size) compared to the vehicle group” value in series [1] (2.4 nmol/day/mouse×14 days) was “significant tumor growth inhibition activity from Days 5 to 11”; in series [1] (24 nmol/day/mouse×14 days), “significant effect of tumor growth inhibition from Days 5 to 9 and on Day 11”. The “effect of tumor growth inhibition relative to Metastin” value in series [1] (SW620 tumor-bearing mice, in vivo) stood at 10 times. Moreover, in series [2] (hOT7T175-expressed CHO cells, 3 days culture, Cell Counting Kit-8, read-out: IC50 (M), cell growth inhibition activity), the IC50 was determined as 8.94e-09 M. Besides, the blood glucose level entry in the series with rats is on record as “increase in the blood glucose level”. Also, the blood glucagon level result in the series on rats is “increase in the blood glucagon level”.
Consider `CNC(=N)NCCC[C@H](NC(=O)[C@H](CC(C)C)NC(=O)NNC(=O)[C@H](Cc1ccccc1)NC(=O)[C@H](CO)NC(=O)[C@H](CC(N)=O)NC(=O)CCc1cccnc1)C(=O)N[C@@H](Cc1ccccc1)C(N)=O` [Compound No. 322, 3-Pyridylpropionyl-Asn-Ser-Phe-AzaGly-Leu-Arg(Me)-Phe-NH2] ({Propanoyl(3-(3-pyridyl))}-NSF[azaGly]L[Arg(Me)]F-NH2), for which, in the series “in vitro”, the half-life at 100 µM stood at 1.57 h. In the series with immature rat (2.0 nmol/animal s.c.), the rats ovulated is on record as 3 out of 5. In addition, the “level of estradiol contained in plasma” value is “tendency to show a higher level in rats with no ovulation induction” with immature rat (2.0 nmol/animal s.c. (FIG. 21)) and “no difference” with immature rat (6.7 nmol/animal s.c. (FIG. 21)). For the same molecule, the “level of progesterone in blood” value was “very low level” in the series with immature rat (2.0 nmol/animal s.c. (FIG. 22)) and “less than a half of the level in Group A” with immature rat (6.7 nmol/animal s.c. (FIG. 22)). Further, the “number of oocytes in average per rat” value in the series on immature rat (2.0 nmol/animal s.c.) is 11.6 oocytes; with immature rat (6.7 nmol/animal s.c.), 29.6 oocytes. Also, the “dose to be administered for induction of ovulation equivalent to hCG” value with immature rat is reported as “at least 6.7 nmol/animal”. The “tumor growth inhibition compared with the Metastin group” value in series [1] (24 nmol/day/mouse×14 days, Day 11) is reported as “significant tumor growth inhibition activity even when compared with the Metastin group”. The “tumor growth inhibition (tumor size) compared to the vehicle group” value in series [1] (2.4 nmol/day/mouse×14 days) is on record as “significant tumor growth inhibition activity in a 1/10 dose (2.4 nmol/day/mouse×14 days) of Metastin from Days 6 to 8”; in series [1] (24 nmol/day/mouse×14 days), “significant tumor growth inhibition activity from Days 6 to 11”. The IC50 in series [2] was found to be 7.19e-08 M. For the same molecule, in the series on rats, the blood glucose level entry is recorded as “increase in the blood glucose level”. Moreover, the blood glucagon level result with rats was “increase in the blood glucagon level”.
